Among the data in patent publication EP2257297B1, “COMPOUNDS FOR USE IN THE TREATMENT OF ACNE, SEBORRHOEA AND SEBHORROEIC DERMATITIS, OR FOR REDUCING SEBUM SECRETION” (priority 2008, dated 2009) are IC50 values, retold here.

As a reminder, the IC50 is the point on the concentration scale where inhibition reaches its midpoint.

Where only a bound is given, the exact number is not on record here.

The target in the assay is T1, human MC5R (Homo sapiens, UniProt P33032).
T1 construct: purchased Perkin Elmer RBXMC5M400UA
T1 sequence (P33032 whole entry): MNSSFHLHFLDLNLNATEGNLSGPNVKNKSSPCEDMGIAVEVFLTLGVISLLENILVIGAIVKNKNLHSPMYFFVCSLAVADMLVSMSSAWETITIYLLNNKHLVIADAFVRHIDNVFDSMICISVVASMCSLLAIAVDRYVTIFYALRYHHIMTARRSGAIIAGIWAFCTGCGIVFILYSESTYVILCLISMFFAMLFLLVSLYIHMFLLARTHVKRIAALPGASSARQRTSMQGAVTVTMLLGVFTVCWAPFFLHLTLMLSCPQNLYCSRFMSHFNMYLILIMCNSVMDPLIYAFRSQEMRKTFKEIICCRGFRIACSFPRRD
Description: Human MC5R radioligand binding assay ([125I] NDP-MSH displacement, hMC5R membranes). As to conditions: hMC5R assay as in Example 102; compounds tested as trifluoroacetate or hydrochloride salts, or as free base. The gist of the method: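 Bound ligand collected by filtration on PEI-soaked GF/A filters and counted. Data fitted to a single-site competition model with fixed Hill coefficient to give EC50.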
For the compound `Cc1cccc(/C=C/C(=O)NC[C@@H]2CCN(CC(c3ccccc3)c3ccccc3)C(=O)[C@H](CCCNC(=N)N)N2)c1` [Compound 191, (E)-N-(((3S,5S)-1-(2,2-diphenylethyl)-3-(3-guanidinopropyl)-2-oxo-1,4-diazepan-5-yl)methyl)-3-m-tolylacrylamide], the IC50 was under 0.1 µM.

Turning to `N=C(N)NCCC[C@@H]1N[C@H](CNC(=O)/C=C/c2cccc(C(F)(F)F)c2)CCN(CC(c2ccccc2)c2ccccc2)C1=O` [Compound 192, (E)-N-(((3S,5S)-1-(2,2-diphenylethyl)-3-(3-guanidinopropyl)-2-oxo-1,4-diazepan-5-yl)methyl)-3-(3-(trifluoromethyl)phenyl)acrylamide], the IC50 was under 1 µM.

Consider `N=C(N)NCCC[C@@H]1N[C@H](CNC(=O)/C=C/c2cccc(O)c2)CCN(CC(c2ccccc2)c2ccccc2)C1=O` [Compound 193, (E)-N-(((3S,5S)-1-(2,2-diphenylethyl)-3-(3-guanidinopropyl)-2-oxo-1,4-diazepan-5-yl)methyl)-3-(3-hydroxyphenyl)acrylamide], for which the IC50 was under 1 µM.

For `N=C(N)NCCC[C@@H]1N[C@H](CNC(=O)/C=C/c2ccccc2F)CCN(CC(c2ccccc2)c2ccccc2)C1=O` [Compound 194, (E)-N-(((3S,5S)-1-(2,2-diphenylethyl)-3-(3-guanidinopropyl)-2-oxo-1,4-diazepan-5-yl)methyl)-3-(2-fluorophenyl)acrylamide], the IC50 is under 0.1 µM.

Consider `Cc1ccccc1/C=C/C(=O)NC[C@@H]1CCN(CC(c2ccccc2)c2ccccc2)C(=O)[C@H](CCCNC(=N)N)N1` [Compound 195, (E)-N-(((3S,5S)-1-(2,2-diphenylethyl)-3-(3-guanidinopropyl)-2-oxo-1,4-diazepan-5-yl)methyl)-3-o-tolylacrylamide], for which the IC50 is under 0.1 µM.

Regarding `N=C(N)NCCC[C@@H]1N[C@H](CNC(=O)/C=C/c2ccc(F)cc2)CCN(CC(c2ccccc2)c2ccccc2)C1=O` [Compound 199, (E)-N-(((3S,5S)-1-(2,2-diphenylethyl)-3-(3-guanidinopropyl)-2-oxo-1,4-diazepan-5-yl)methyl)-3-(4-fluorophenyl)acrylamide], the IC50 is under 0.1 µM.

Turning to `N=C(N)NCCC[C@@H]1N[C@H](CNC(=O)/C=C/c2ccc(C(F)(F)F)cc2)CCN(CC(c2ccccc2)c2ccccc2)C1=O` [Compound 200, (E)-N-(((3S,5S)-1-(2,2-diphenylethyl)-3-(3-guanidinopropyl)-2-oxo-1,4-diazepan-5-yl)methyl)-3-(4-(trifluoromethyl)phenyl)acrylamide], the IC50 was under 0.1 µM.

As to `N=C(N)NCCC[C@@H]1N[C@H](CNC(=O)/C=C/c2c(F)cccc2F)CCN(CC(c2ccccc2)c2ccccc2)C1=O` [Compound 208, (E)-3-(2,6-difluorophenyl)-N-(((3S,5S)-1-(2,2-diphenylethyl)-3-(3-guanidinopropyl)-2-oxo-1,4-diazepan-5-yl)methyl)acrylamide], the IC50 is under 0.1 µM.

In the case of `N=C(N)NCCC[C@@H]1N[C@H](CNC(=O)/C=C/c2c(F)cccc2Cl)CCN(CC(c2ccccc2)c2ccccc2)C1=O` [Compound 209, (E)-3-(2-chloro-6-fluorophenyl)-N-(((3S,5S)-1-(2,2-diphenylethyl)-3-(3-guanidinopropyl)-2-oxo-1,4-diazepan-5-yl)methyl)acrylamide], the IC50 was under 0.1 µM.

With `N=C(N)NCCC[C@@H]1N[C@H](CNC(=O)/C=C/c2ccc(Br)cc2)CCN(CC(c2ccccc2)c2ccccc2)C1=O` [Compound 210, (E)-3-(4-bromophenyl)-N-(((3S,5S)-1-(2,2-diphenylethyl)-3-(3-guanidinopropyl)-2-oxo-1,4-diazepan-5-yl)methyl)acrylamide], the IC50 was under 0.01 µM.

As to `NCCC[C@@H]1N[C@H](CNC(=O)/C=C/c2ccc(Cl)cc2)CCN(CC(c2ccccc2)c2ccccc2)C1=O` [Compound 214, (E)-N-(((3S,5S)-3-(3-aminopropyl)-1-(2,2-diphenylethyl)-2-oxo-1,4-diazepan-5-yl)methyl)-3-(4-chlorophenyl)acrylamide], the IC50 is under 0.1 µM.
